{"source": "patent US20050106173A1", "about": "“METHODS AND COMPOSITIONS FOR TREATING MALE SEXUAL DYSFUNCTION” (priority 2003, published 2005)", "format_in_all_cases": "in vivo", "key": {"[1]": {"test_system": "castrated male Wistar rats", "test": "Sexual activity of castrated male rats caged with female rats (mounting, sniffing and licking frequency)", "conditions": "once daily for 30 days (yeast 1.2 ml/kg intragastric; testosterone propionate 2 mg/kg i.m.), day 29, two female rats in cage", "protocol": "To test the ability of the EMF-treated AS2.502 cells to improve male sexual function, hormone levels, and sexual organ development, 50 healthy adult male Wistar rats (about 100-120 g body weight, 6-8 weeks old) were selected. Ten rats were randomly selected to be the normal control group, CK1 (uncastrated rats). Under anesthesia with pentobarbital (5%, at 45 mg/kg body weight), both testes (including the epididymis) of each of the remaining 40 rats were removed under sterile conditions. Immediately after castration, Penicillin G was injected at 20,000 U/kg body weight once daily for five consecutive days. The castrated rats were then randomly divided into four equal groups, designated as AY (for treatment with the activated yeast composition), NY (for treatment with the control yeast composition), CK2 (for treatment with testosterone propionate), and CK3 (for treatment with saline). Each rat was kept separately. The activated yeast composition was administered to the AY rats at 1.2 ml/kg body weight once daily for 30 days. […]\nOn the twenty-ninth day of the experiment, two female rats (100-120 g, 6-8 weeks old) were put into the same cage as each male rat and kept there for 30 minutes. The frequency of the male rat's sniffing and licking of the female rats, and the frequency of the male rat's mounting of the female rats were recorded in Table 2."}, "[2]": {"test_system": "castrated male Wistar rats", "test": "Wet weight of glandulae preputiales, seminal vesicle and prostate of castrated rats", "conditions": "once daily for 30 days, sacrificed day 31", "protocol": "(§1) To test the ability of the EMF-treated AS2.502 cells to improve male sexual function, hormone levels, and sexual organ development, 50 healthy adult male Wistar rats (about 100-120 g body weight, 6-8 weeks old) were selected. Ten rats were randomly selected to be the normal control group, CK1 (uncastrated rats). Under anesthesia with pentobarbital (5%, at 45 mg/kg body weight), both testes (including the epididymis) of each of the remaining 40 rats were removed under sterile conditions. Immediately after castration, Penicillin G was injected at 20,000 U/kg body weight once daily for five consecutive days. The castrated rats were then randomly divided into four equal groups, designated as AY (for treatment with the activated yeast composition), NY (for treatment with the control yeast composition), CK2 (for treatment with testosterone propionate), and CK3 (for treatment with saline). Each rat was kept separately. The activated yeast composition was administered to the AY rats at 1.2 ml/kg body weight once daily for 30 days. The control yeast composition was administered to the NY rats and saline was administered to the CK3 rats at the same dosage. […]\nEach male rat was sacrificed on the thirty-first day. […] The wet weight of the prostate and seminal vesicle was recorded in Table 2. […] The wet weight of the glandulae preputiales was also recorded in Table 2."}, "castrated Wistar rats [3]": {"test_system": "castrated Wistar rats", "test": "Erectile function by electrical stimulation (erection lag) in castrated rats", "conditions": "once daily for 30 days, day 31, stimulator 55 Hz and 4.5 mA", "protocol": "as §1, with “150-180” for “100-120”, “8-10” for “6-8”\nOn the thirty-first day of the experiment, an electrical stimulator was used to measure the erectile function of the rats. […] The time needed for the penis to achieve erection (“the erection lag”) was recorded in Table 3."}, "castrated Wistar rats [4]": {"test_system": "castrated Wistar rats", "test": "Blood testosterone concentration by radio-immunoassay (RIA) in castrated rats", "conditions": "once daily for 30 days, blood after the erection test on day 31, RIA", "protocol": "as §1, with “150-180” for “100-120”, “8-10” for “6-8”\nEach rat was sacrificed after the erection test. Blood samples were collected from each rat, and the blood concentration of testosterone was determined by the standard radio-immunoassay (RIA) method."}}}
{"compound": "CCC(=O)O[C@H]1CC[C@H]2[C@@H]3CCC4=CC(=O)CC[C@]4(C)[C@H]3CC[C@]12C", "note": "[testosterone propionate]", "values": [{"measurement": "Mounting Frequency Within a 30 min Period", "setting": "[1]", "value": "12.3 ± 4.6"}, {"measurement": "Sniffing & Licking Frequency Within a 30 min Period", "setting": "[1]", "value": "22.7 ± 4.6"}, {"measurement": "Glandulae Preputiales (wet weight)", "setting": "[2]", "value": "89.5 ± 14.6", "unit": "mg"}, {"measurement": "Seminal Vesicle and Prostate (wet weight)", "setting": "[2]", "value": "198.7 ± 42.6", "unit": "mg"}, {"measurement": "Erection Lag", "setting": "castrated Wistar rats [3]", "value": "19.3 ± 14.6", "unit": "s"}, {"measurement": "Testosterone Levels", "setting": "castrated Wistar rats [4]", "value": "124.17 ± 67.65", "unit": "ng/dL"}]}
